Results taken from US20110098305A1, “ARYLSULFONAMIDE COMPOUNDS, COMPOSITIONS AND METHODS OF USE” (priority 2008, published 2011).
pIC50: −log10 of the molar value.

Target: T1, Bcl-XL (Homo sapiens, UniProt Q07817)
T1 construct: GST tagged Bcl-XL ΔC25 protein (0.6 nM Final concentration)
Experiment: Alphascreen competition assay, GST tagged Bcl-XL with biotinylated Bim BH3-26 peptide
Type: binding
Settings: GST tagged Bcl-XL ΔC25 protein 0.6 nM, biotinylated Bim BH3-26 peptide 5.0 nM, read-out: IC50 against Bcl-XL
Description: The following example describes the measurement of competition of compounds of the invention with Bim26-mer for a Bcl-2 homologue binding site.
Alphascreen (Amplified Luminescent Proximity Homogenous Assay) is a bead based technology which measures the interaction between molecules. The assay consists of two hydrogel coated beads which, when brought into close proximity by a binding interaction, results in the transfer of singlet oxygen from a donor bead to an acceptor bead.
Upon binding and excitation with laser light at 680 nm, a photosensitizer in the donor bead converts ambient oxygen to a more excited singlet state. This singlet oxygen then diffuses and reacts with a chemiluminescer in the acceptor bead. Fluorophores within the same bead are activated and result in the emission of light at 580-620 nm.
Screening of the compounds of the invention is performed using the Alphascreen GST (glutathione s-transferase) detection kit system. […] To this reaction mix, anti-GST coated acceptor beads and Streptavidin coated donor beads, both at 15 μg/ml Final concentration, are added and the assay mixture is incubated for 4 hours at room temperature before reading. […]
Assay buffer contains 50 mM Hepes pH 7.4, 10 mM DTT, 100 mM NaCl, 0.05% Tween and 0.1 mg/ml casein. […] Assays are performed in 384 well white Optiplates and is analyzed on the PerkinElmer Fusion alpha plate reader (Ex680, Em520-620 […]). […]

T1 sequence (Q07817 1-208 limits assumed, species assumed): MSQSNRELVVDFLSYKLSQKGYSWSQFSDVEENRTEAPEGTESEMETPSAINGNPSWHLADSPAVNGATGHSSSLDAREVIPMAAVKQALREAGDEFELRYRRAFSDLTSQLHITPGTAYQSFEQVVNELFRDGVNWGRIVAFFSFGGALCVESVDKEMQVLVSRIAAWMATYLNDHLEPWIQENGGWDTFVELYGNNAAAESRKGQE

pIC50: 5.52
SMILES: O=[N+]([O-])c1cc(S(=O)(=O)Nc2ncnc3cc(-c4ccc(F)cc4)ccc23)ccc1NCCSc1ccccc1 [compound c, N-(7-(4-fluorophenyl)quinazolin-4-yl)-3-nitro-4-(2-(phenylthio)ethylamino)benzenesulfonamide]
